Data from patent publication US20210317099A1, “SAFER, POTENT, AND FAST ACTING ANTIMICROBIAL AGENTS” (Purdue Research Foundation, priority 2020, published 2021).
≈ marks a conversion by molar mass, not a printed value. Where two headings read alike, the source gives them in different places.

Test system: Staphylococcus aureus NRS384 (MRSA USA300)
Assay: Initial MIC screening, broth microdilution (CLSI)
Format: cell-based
Settings: Staphylococcus aureus NRS384 (MRSA USA300), broth microdilution, visual reading
Experimental: Method: The minimum inhibitory concentration (MIC) of the compounds 1-187, and control antibiotics (vancomycin, linezolid) was determined using the broth microdilution method against methicillin-resistant Staphylococcus aureus (MRSA) USA 300 using the broth microdilution method according to the guidelines outlined by the Clinical and Laboratory Standards Institute (CLSI). MRSA strain was cultivated on Tryptic soy agar plates and let grow for 24 hours at 37° C. under aerobic conditions. Bacterial suspension equivalent to 0.5 McFarland standard was prepared and diluted in cation-adjusted Mueller-Hinton broth (CAMHB) to attain a bacterial concentration of 5×10^5 CFU/ml and seeded in 96-well plates. The desired concentrations of each drug and compound were added in the first row of the 96-well plates and serially diluted to achieve a concentration gradient from 64 μg/ml to 0.5 μg/mL.

[1] = Staphylococcus aureus, read-out: MIC

| SMILES | MIC [1] [µg/mL] | MIC [µg/mL] |
| --- | --- | --- |
| C=C1C(=O)O[C@H](c2cccc(Br)c2)[C@@H]1c1ccc(C#N)cc1 [Compound 1] | 8 (≈ 22.6 µM) |  |
| C=C1C(=O)O[C@H](c2ccc(OC)cc2)[C@@H]1c1ccc(Br)cc1 [Compound 2] | 8 (≈ 22.3 µM) |  |
| C=C1C(=O)O[C@H](c2ccc(OC)cc2)[C@@H]1c1cccc(Br)c1 [Compound 3] | 8 (≈ 22.3 µM) |  |
| C=C1C(=O)O[C@H](c2ccc(O)cc2)[C@@H]1c1ccc(C#N)cc1 [Compound 4] | 256 (≈ 879 µM) |  |
| CN(C)C[C@@H]1C(=O)O[C@H](c2ccccc2)[C@@H]1c1ccccc1 [Compound 5] | 16 (≈ 54.2 µM) |  |
| Cc1ccc([C@@H]2[C@H](CN(C)C)C(=O)O[C@@H]2c2ccc(C)cc2)cc1 [Compound 6] | 32 (≈ 98.9 µM) |  |
| COc1ccc([C@H]2OC(=O)[C@@H](CN(C)C)[C@H]2c2ccc(C)cc2)cc1 [Compound 7] | 32 (≈ 94.3 µM) |  |
| COc1ccc([C@H]2OC(=O)[C@@H](CN(C)C)[C@H]2c2ccccc2)cc1 [Compound 8] | > 256 |  |
| COc1ccc([C@@H]2[C@H](CN(C)C)C(=O)O[C@@H]2c2ccc(C#N)cc2)cc1 [Compound 9] | 128 (≈ 365 µM) |  |
| C=C1C(=O)O[C@H](c2cccc(F)c2F)[C@H]1c1ccccc1 [Compound 10] | 16 (≈ 55.9 µM) |  |
| CN(C)CC1C(=O)O[C@H](c2ccccc2)[C@H]1c1ccccc1 (stereo partly drawn) [Compound 11] | 32 (≈ 108 µM) |  |
| C=C1C(=O)O[C@H](c2ccccc2Br)[C@@H]1c1ccc(C#N)cc1 [Compound 12] | 4 (≈ 11.3 µM) |  |
| C=C1C(=O)O[C@H](c2ccc(Br)cc2)[C@@H]1c1ccc(C#N)cc1 [Compound 13] | 4 (≈ 11.3 µM) |  |
| Cc1ccc([C@H]2OC(=O)C(CN(C)C)[C@H]2c2ccc(C#N)cc2)cc1 (stereo partly drawn) [Compound 14] | > 128 |  |
| COc1ccc([C@H]2OC(=O)C(CN(C)C)[C@H]2c2ccc(C#N)cc2)cc1 (stereo partly drawn) [Compound 15] | > 128 |  |
| CN(C)CC1C(=O)O[C@H](c2ccccc2)[C@@H]1c1ccc(C#N)cc1 (stereo partly drawn) [Compound 16] | > 128 |  |
| COc1ccc([C@@H]2C(CN(C)C)C(=O)O[C@@H]2c2ccccc2)cc1 (stereo partly drawn) [Compound 17] | 64 (≈ 197 µM) |  |
| Cc1ccc([C@H]2OC(=O)C(CN(C)C)[C@H]2c2ccccc2)cc1 (stereo partly drawn) [Compound 18] | 128 (≈ 414 µM) |  |

| SMILES | MIC [1] [µg/mL] | MIC [µg/mL] |
| --- | --- | --- |
| C=C1C(=O)O[C@H](c2cccc(OC)c2)[C@@H]1c1ccc(C#N)cc1 [Compound 19] | 64 (≈ 210 µM) |  |
| C=C1C(=O)O[C@H](c2cccc(C#N)c2)[C@@H]1c1ccc(OC)cc1 [Compound 20] | 16 (≈ 52.4 µM) |  |
| C=C1C(=O)O[C@H](c2ccc3ccccc3c2)[C@@H]1c1ccccc1 [Compound 21] |  | 32 (≈ 107 µM) |
| C=C1C(=O)O[C@H](c2ccc(N)cc2)[C@@H]1c1ccccc1 [Compound 22] | 32 (≈ 121 µM) |  |
| C=C1C(=O)OC[C@@H]1c1ccccc1 [Compound 25] | > 128 |  |
| CCCCC[C@@H]1CC(CN2CCCCC2)C(=O)O1 (stereo partly drawn) [Compound 26] | > 128 |  |
| COc1cc([C@H]2OC(=O)C(CN3CCCCC3)[C@H]2c2ccccc2Br)ccc1OCc1ccccc1 (stereo partly drawn) [Compound 27] | > 128 |  |
| N#Cc1ccc([C@H]2COC(=O)C2CN2CCCCC2)cc1 (stereo partly drawn) [Compound 28] | > 128 |  |
| C/C=C/[C@H]1OC(=O)C(CN2CCCCC2)[C@H]1c1ccc(Br)cc1 (stereo partly drawn) [Compound 29] | 16 (≈ 42.3 µM) |  |
| O=C1O[C@H](c2ccc3ccccc3c2)CC1CN1CCCCC1 (stereo partly drawn) [Compound 31] | > 128 |  |
| O=C1O[C@H](c2ccccc2)CC1CN1CCCCC1 (stereo partly drawn) [Compound 32] | > 128 |  |
| C[C@@]1(c2ccccc2)CC(CN2CCCCC2)C(=O)O1 (stereo partly drawn) [Compound 33] | > 128 |  |
| O=C1OCCC1CN1CCCCC1 (stereo not drawn) [Compound 34] | > 128 |  |
| COc1ccc([C@@H]2C(CN3CCCCC3)C(=O)O[C@@H]2c2ccc(C)cc2)cc1 (stereo partly drawn) [Compound 35] | 64 (≈ 169 µM) |  |
| C=C1C(=O)O[C@H](c2ccc(C#N)cc2)[C@@H]1c1ccc(C)cc1 [Compound 37] | 16 (≈ 55.3 µM) |  |
| C=C1C(=O)O[C@H](c2ccc(C#N)cc2)[C@@H]1c1ccccc1 [Compound 39] | 64 (≈ 232 µM) |  |
| C=C1C(=O)O[C@H](c2ccccc2OC)[C@@H]1c1ccccc1Br [Compound 40] | 16 (≈ 44.5 µM) |  |
| CCC[C@H]1COC(=O)C1CN1CCCCC1 (stereo partly drawn) [Compound 41] | > 128 |  |
